Where “and” joins values, the source holds several entries; their conditions need not be identical. Identical values can stand only once.
Tests used:
NCI-H322M = experiment: NCI-60 one-dose SRB screen (Non-Small Cell Lung Cancer); type: cell-based; conditions: Homo sapiens, single dose 10 µM, 48 h, read-out: Growth inhibition percent (GI %)
EKVX = experiment: as above; type: cell-based; conditions: Homo sapiens, single dose 10 µM, 48 h, read-out: Growth inhibition percent (GI %)
NCI-H522 = experiment: as above; type: cell-based; conditions: Homo sapiens, single dose 10 µM, 48 h, read-out: Growth inhibition percent (GI %)
NCI-H23 = experiment: as above; type: cell-based; conditions: Homo sapiens, single dose 10 µM, 48 h, read-out: Growth inhibition percent (GI %)
NCI-H226 = experiment: as above; type: cell-based; conditions: Homo sapiens, single dose 10 µM, 48 h, read-out: Growth inhibition percent (GI %)
A549/ATCC = experiment: as above; type: cell-based; conditions: Homo sapiens, single dose 10 µM, 48 h, read-out: Growth inhibition percent (GI %)
HOP-92 = experiment: as above; type: cell-based; conditions: Homo sapiens, single dose 10 µM, 48 h, read-out: Growth inhibition percent (GI %)
NCI-H460 = experiment: as above; type: cell-based; conditions: Homo sapiens, single dose 10 µM, 48 h, read-out: Growth inhibition percent (GI %)
HOP-62 = experiment: as above; type: cell-based; conditions: Homo sapiens, single dose 10 µM, 48 h, read-out: Growth inhibition percent (GI %)
UACC-62 = experiment: NCI-60 one-dose SRB screen (Melanoma); type: cell-based; conditions: Homo sapiens, single dose 10 µM, 48 h, read-out: Growth inhibition percent (GI %)
M14 = experiment: NCI-60 one-dose SRB screen (Melanoma); type: cell-based; conditions: Homo sapiens, single dose 10 µM, 48 h, read-out: Growth inhibition percent (GI %)
UACC-257 = experiment: NCI-60 one-dose SRB screen (Melanoma); type: cell-based; conditions: Homo sapiens, single dose 10 µM, 48 h, read-out: Growth inhibition percent (GI %)
MDA-MB-435 = experiment: NCI-60 one-dose SRB screen (Melanoma); type: cell-based; conditions: Homo sapiens, single dose 10 µM, 48 h, read-out: Growth inhibition percent (GI %)
LOX IMVI = experiment: NCI-60 one-dose SRB screen (Melanoma); type: cell-based; conditions: Homo sapiens, single dose 10 µM, 48 h, read-out: Growth inhibition percent (GI %)
SK-MEL-5 = experiment: NCI-60 one-dose SRB screen (Melanoma); type: cell-based; conditions: Homo sapiens, single dose 10 µM, 48 h, read-out: Growth inhibition percent (GI %)
MALME-3M = experiment: NCI-60 one-dose SRB screen (Melanoma); type: cell-based; conditions: Homo sapiens, single dose 10 µM, 48 h, read-out: Growth inhibition percent (GI %)
SK-MEL-2 = experiment: NCI-60 one-dose SRB screen (Melanoma); type: cell-based; conditions: Homo sapiens, single dose 10 µM, 48 h, read-out: Growth inhibition percent (GI %)
SK-MEL-28 = experiment: NCI-60 one-dose SRB screen (Melanoma); type: cell-based; conditions: Homo sapiens, single dose 10 µM, 48 h, read-out: Growth inhibition percent (GI %)
OVCAR-4 = experiment: NCI-60 one-dose SRB screen (Ovarian cancer); type: cell-based; conditions: Homo sapiens, single dose 10 µM, 48 h, read-out: Growth inhibition percent (GI %)
NCI/ADR-RES = experiment: NCI-60 one-dose SRB screen (Ovarian cancer); type: cell-based; conditions: Homo sapiens, single dose 10 µM, 48 h, read-out: Growth inhibition percent (GI %)
SK-OV-3 = experiment: NCI-60 one-dose SRB screen (Ovarian cancer); type: cell-based; conditions: Homo sapiens, single dose 10 µM, 48 h, read-out: Growth inhibition percent (GI %)
OVCAR-8 = experiment: NCI-60 one-dose SRB screen (Ovarian cancer); type: cell-based; conditions: Homo sapiens, single dose 10 µM, 48 h, read-out: Growth inhibition percent (GI %)
OVCAR-5 = experiment: NCI-60 one-dose SRB screen (Ovarian cancer); type: cell-based; conditions: Homo sapiens, single dose 10 µM, 48 h, read-out: Growth inhibition percent (GI %)
OVCAR-3 = experiment: NCI-60 one-dose SRB screen (Ovarian cancer); type: cell-based; conditions: Homo sapiens, single dose 10 µM, 48 h, read-out: Growth inhibition percent (GI %)
IGROV1 = experiment: NCI-60 one-dose SRB screen (Ovarian cancer); type: cell-based; conditions: Homo sapiens, IGROV-1, single dose 10 µM, 48 h, read-out: Growth inhibition percent (GI %)
MDA-MB-231/ATCC = experiment: NCI-60 one-dose SRB screen (Breast Cancer); type: cell-based; conditions: Homo sapiens, single dose 10 µM, 48 h, read-out: Growth inhibition percent (GI %)
MCF-7 = experiment: NCI-60 one-dose SRB screen (Breast Cancer); type: cell-based; conditions: Homo sapiens, MCF7, single dose 10 µM, 48 h, read-out: Growth inhibition percent (GI %)
HS 578T = experiment: NCI-60 one-dose SRB screen (Breast Cancer); type: cell-based; conditions: Homo sapiens, single dose 10 µM, 48 h, read-out: Growth inhibition percent (GI %)
MDA-MB-468 = experiment: NCI-60 one-dose SRB screen (Breast Cancer); type: cell-based; conditions: Homo sapiens, single dose 10 µM, 48 h, read-out: Growth inhibition percent (GI %)
hCA XII = hCA XII (Homo sapiens, UniProt O43570); experiment: CA inhibitory activity, spectrophotometric p-NPA assay; type: biochemical; conditions: p-NPA substrate, pH 7.5, 25 °C, triplicate; read-out: IC50 (µM) ± SD hCA XII
Description: The software used to calculate CA IC50 along with statistical analysis of the results is GraphPad Prism 9.00. Results were estimated by using one-way ANOVA and the Bonferroni’s multiple comparisons posthoc test was performed (P < 0.05) [46]
Carbonic anhydrase inhibitory activity:
The spectrophotometric assay was conducted in HEPES-Tris buffer, NaCl of pH 7.5 (20mM) at 25◦C. Each inhibitory well-consisted of 50 μL of assay buffer solution, 20 μL of hCA enzyme solution (20 ng/μL in Assay Buffer), and 50 μL of test compound in HPLC grade DMSO (maintain 10% of the final concentration). The mixture solution was
Substrate p-nitrophenyl acetate (p-NPA) (0.7mM) was prepared in HPLC grade methanol and the reaction was started by adding 20 μL to a well in a 96-well-plate. The amount of product formed was measured for 30 min continuously at 1 min intervals at 400 nm in a 96-well-plate using xMARK microplate spectrophotometer, Bio-Rad (USA). The activity of the controlled compound was taken as 100%. All experiments were carried out in triplicates of each used concentration, and results are represented as a

PC-3 = experiment: NCI-60 one-dose SRB screen (Prostate Cancer); type: cell-based; conditions: Homo sapiens, single dose 10 µM, 48 h, read-out: Growth inhibition percent (GI %)
DU-145 = experiment: NCI-60 one-dose SRB screen (Prostate Cancer); type: cell-based; conditions: Homo sapiens, single dose 10 µM, 48 h, read-out: Growth inhibition percent (GI %)
SF-268 = experiment: NCI-60 one-dose SRB screen (CNS Cancer); type: cell-based; conditions: Homo sapiens, single dose 10 µM, 48 h, read-out: Growth inhibition percent (GI %)
SNB-75 = experiment: NCI-60 one-dose SRB screen (CNS Cancer); type: cell-based; conditions: Homo sapiens, single dose 10 µM, 48 h, read-out: Growth inhibition percent (GI %)
SF-295 = experiment: NCI-60 one-dose SRB screen (CNS Cancer); type: cell-based; conditions: Homo sapiens, single dose 10 µM, 48 h, read-out: Growth inhibition percent (GI %)
U251 = experiment: NCI-60 one-dose SRB screen (CNS Cancer); type: cell-based; conditions: Homo sapiens, U-251, single dose 10 µM, 48 h, read-out: Growth inhibition percent (GI %)
SNB-19 = experiment: NCI-60 one-dose SRB screen (CNS Cancer); type: cell-based; conditions: Homo sapiens, single dose 10 µM, 48 h, read-out: Growth inhibition percent (GI %)
SF-539 = experiment: NCI-60 one-dose SRB screen (CNS Cancer); type: cell-based; conditions: Homo sapiens, single dose 10 µM, 48 h, read-out: Growth inhibition percent (GI %)
hCA IX = hCA IX (Homo sapiens, UniProt Q16790); experiment: CA inhibitory activity, spectrophotometric p-NPA assay; type: biochemical; conditions: p-NPA substrate, pH 7.5, 25 °C, triplicate; read-out: IC50 (µM) ± SD hCA IX
HL-60(TB) = experiment: NCI-60 one-dose SRB screen (Leukemia); type: cell-based; conditions: Homo sapiens, single dose 10 µM, 48 h, read-out: Growth inhibition percent (GI %)
K-562 = experiment: NCI-60 one-dose SRB screen (Leukemia); type: cell-based; conditions: Homo sapiens, K562, single dose 10 µM, 48 h, read-out: Growth inhibition percent (GI %)
CCRF-CEM = experiment: NCI-60 one-dose SRB screen (Leukemia); type: cell-based; conditions: Homo sapiens, single dose 10 µM, 48 h, read-out: Growth inhibition percent (GI %)
RPMI-8226 = experiment: NCI-60 one-dose SRB screen (Leukemia); type: cell-based; conditions: Homo sapiens, single dose 10 µM, 48 h, read-out: Growth inhibition percent (GI %)
SR = experiment: NCI-60 one-dose SRB screen (Leukemia); type: cell-based; conditions: Homo sapiens, single dose 10 µM, 48 h, read-out: Growth inhibition percent (GI %)
MOLT-4 = experiment: NCI-60 one-dose SRB screen (Leukemia); type: cell-based; conditions: Homo sapiens, single dose 10 µM, 48 h, read-out: Growth inhibition percent (GI %)

Sequence of hCA XII (O43570 25-354): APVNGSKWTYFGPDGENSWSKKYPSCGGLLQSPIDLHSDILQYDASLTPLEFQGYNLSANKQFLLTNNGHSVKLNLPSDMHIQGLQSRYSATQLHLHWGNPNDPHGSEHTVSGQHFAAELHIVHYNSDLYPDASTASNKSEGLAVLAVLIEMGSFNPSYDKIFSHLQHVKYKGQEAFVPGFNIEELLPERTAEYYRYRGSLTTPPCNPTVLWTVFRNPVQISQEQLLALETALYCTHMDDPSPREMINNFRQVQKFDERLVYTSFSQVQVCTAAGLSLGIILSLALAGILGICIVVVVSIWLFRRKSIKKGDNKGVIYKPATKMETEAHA

NC(=S)NNC(=O)c1cn(-c2ccc(S(N)(=O)=O)cc2)nc1-c1ccccc1 [Compound 9a, 2-[3-Phenyl-1-(4-sulfamoylphenyl)-1H-pyrazole-4-carbonyl] hydrazine-1-carbothioamide]
inhibition at 10 µM (NCI-H322M): < 5% | inhibition at 10 µM (EKVX): < 5% | inhibition at 10 µM (NCI-H522): 23.9% | inhibition at 10 µM (NCI-H23): < 5% | inhibition at 10 µM (NCI-H226): < 5% | inhibition at 10 µM (A549/ATCC): 10.9% | inhibition at 10 µM (HOP-92): < 5% | inhibition at 10 µM (NCI-H460): < 5% | inhibition at 10 µM (HOP-62): 8.3% | inhibition at 10 µM (UACC-62): 8.26% | inhibition at 10 µM (M14): < 5% | inhibition at 10 µM (UACC-257): < 5% | inhibition at 10 µM (MDA-MB-435): < 5% | inhibition at 10 µM (LOX IMVI): < 5% | inhibition at 10 µM (SK-MEL-5): < 5% | inhibition at 10 µM (MALME-3M): < 5% | inhibition at 10 µM (SK-MEL-2): < 5% | inhibition at 10 µM (SK-MEL-28): < 5% | inhibition at 10 µM (OVCAR-4): < 5% | inhibition at 10 µM (NCI/ADR-RES): < 5% | inhibition at 10 µM (SK-OV-3): < 5% | inhibition at 10 µM (OVCAR-8): < 5% | inhibition at 10 µM (OVCAR-5): < 5% | inhibition at 10 µM (OVCAR-3): < 5% | inhibition at 10 µM (IGROV1): < 5% | inhibition at 10 µM (MDA-MB-231/ATCC): < 5% | inhibition at 10 µM (MCF-7): < 5% | inhibition at 10 µM (HS 578T): < 5% | inhibition at 10 µM (MDA-MB-468): < 5% | IC50 (hCA XII): 0.605 ± 0.023 µM | inhibition at 10 µM (PC-3): < 5% | inhibition at 10 µM (DU-145): < 5% | inhibition at 10 µM (SF-268): < 5% | inhibition at 10 µM (SNB-75): < 5% | inhibition at 10 µM (SF-295): < 5% | inhibition at 10 µM (U251): < 5% | inhibition at 10 µM (SNB-19): < 5% | inhibition at 10 µM (SF-539): 6.07% | melting point: 180 to 181 °C | IC50 (hCA IX): 0.21 µM and 0.215 µM | inhibition at 10 µM (HL-60(TB)): < 5% | inhibition at 10 µM (K-562): < 5% | inhibition at 10 µM (CCRF-CEM): < 5% | inhibition at 10 µM (RPMI-8226): < 5% | inhibition at 10 µM (SR): < 5% | inhibition at 10 µM (MOLT-4): < 5%

Cc1ccc(-c2nn(-c3ccc(S(N)(=O)=O)cc3)cc2C(=O)OCC(=O)Nc2nnc(S(N)(=O)=O)s2)cc1 [Compound 6b, 2-Oxo-2-[(5-sulfamoyl-1,3,4-thiadiazol-2-yl)amino] ethyl 1-(4-sulfamoylphenyl)-3-(p-tolyl)-1H-pyrazole-4-carboxylate]
inhibition at 10 µM (NCI-H322M): < 5% | inhibition at 10 µM (EKVX): 7.25% | inhibition at 10 µM (NCI-H522): < 5% | inhibition at 10 µM (NCI-H23): 9.63% | inhibition at 10 µM (NCI-H226): 13.3% | inhibition at 10 µM (A549/ATCC): < 5% | inhibition at 10 µM (HOP-92): 22.2% | inhibition at 10 µM (NCI-H460): < 5% | inhibition at 10 µM (HOP-62): < 5% | inhibition at 10 µM (UACC-62): 14.4% | inhibition at 10 µM (M14): < 5% | inhibition at 10 µM (UACC-257): < 5% | inhibition at 10 µM (MDA-MB-435): 5.8% | inhibition at 10 µM (LOX IMVI): 12.1% | inhibition at 10 µM (SK-MEL-5): 23% | inhibition at 10 µM (MALME-3M): 10.9% | inhibition at 10 µM (SK-MEL-2): < 5% | inhibition at 10 µM (SK-MEL-28): < 5% | inhibition at 10 µM (OVCAR-4): 16% | inhibition at 10 µM (NCI/ADR-RES): < 5% | inhibition at 10 µM (SK-OV-3): < 5% | inhibition at 10 µM (OVCAR-8): < 5% | inhibition at 10 µM (OVCAR-5): < 5% | inhibition at 10 µM (OVCAR-3): < 5% | inhibition at 10 µM (IGROV1): < 5% | inhibition at 10 µM (MDA-MB-231/ATCC): 8.63% | inhibition at 10 µM (MCF-7): < 5% | inhibition at 10 µM (HS 578T): < 5% | inhibition at 10 µM (MDA-MB-468): < 5% | IC50 (hCA XII): 1.7 ± 0.064 µM | inhibition at 10 µM (PC-3): 7.13% | inhibition at 10 µM (DU-145): < 5% | inhibition at 10 µM (SF-268): 9.87% | inhibition at 10 µM (SNB-75): 23.9% | inhibition at 10 µM (SF-295): < 5% | inhibition at 10 µM (U251): < 5% | inhibition at 10 µM (SNB-19): 5.72% | inhibition at 10 µM (SF-539): 7.75% | melting point: 115 to 120 °C | IC50 (hCA IX): 0.339 ± 0.016 µM | inhibition at 10 µM (HL-60(TB)): < 5% | inhibition at 10 µM (K-562): 16.7% | inhibition at 10 µM (CCRF-CEM): 6.03% | inhibition at 10 µM (RPMI-8226): < 5% | inhibition at 10 µM (SR): 15.7% | inhibition at 10 µM (MOLT-4): 7.13%

From paper PMC12454493, “Insight on novel sulfamoylphenyl pyrazole derivatives as anticancer carbonic anhydrase inhibitors” (Molecular Diversity, 2024)
